Measurements reported in patent US20180251425A1, “2,3,5 TRISUBSTITUTED PYRROLE DERIVATIVES AS TOPOISOMERASE INHIBITORS AND THERAPEUTIC USES THEREOF” (UNIVERSITY OF MYSORE, priority 2015, published 2018).

Legend:
K562 = experiment: Cytotoxicity (MTT / trypan blue) in K562 cells; assay type: cell-based; conditions: Homo sapiens, read-out: Cytotoxicity IC 50 in μM (Cell lines) K562
Experimental: (§1) Human cancer cell lines, K562, MCF7, HeLa and HEK 293T were purchased from National Centre for Cell Science, Pune, India. Cells were grown in RPMI 1640/MEM/DMEM supplemented with 10% heat-inactivated fetal bovine serum (FBS), 100 U/mL of Penicillin, and 100 μg of streptomycin/mL and incubated at 37° C. in a humidified atmosphere containing 5% CO2.
The human T cell leukemia cell line Molt4, Human acute lymphoblastic leukemia (ALL) cell line Nalm6, Human acute myelocytic leukemia (AML) cell line Reh, chronic myelogenous leukemia (CML) cell line K562, Human breast adenocarcinoma cell lines like MCF7 and human kidney cell line HEK 293T (Human embryonic kidney cell line) were selected for the purpose of preliminary anticancer screening of newly synthesized compounds (ASR1 to ASR15). To check the cytotoxicity, trypan blue dye exclusion assays, MTT assay were employed as described earlier Further, Cell cycle analysis, Mitochondrial membrane potential, Annexin-V FITC staining assay were also performed in order to understand the mode of cell death after treatment with ASR6. Further, ASR6 was also tested for its ability to inhibit topoisomerase I and II activity in vitro.
Cytotoxic effect of the newly synthesized compounds against leukemic cells was assessed using 3-(4, 5-dimethyl-2-yl02, 5-diphenyl tetrazolium bromide (MTT) assay. After exposure of compound at different concentration (0.01, 0.1, 0.5, 1, 10, 50 and 100 μM) cells were harvested and transferred into 96 well plate, MTT (5 mg/ml) was added and incubate at 37° C. for 4 h and formazan crystals were dissolved by adding solubilizing agent (10% SDS and 50% dimethyl formamide) for 1 h, finally plate was read at 570 nm (Bio-Rad, USA). Results were represented as inhibition of percentage of cell proliferation in bar diagram (n=3) (FIGS. 1 A, C, E and G).
(§2) To determine the growth inhibitory activity of the drug, 0.5×10^5 cell/ml were plated in 24 well (Biofil, USA.) in 1 ml of complete medium and treated with various concentration of the compound to test, cells were stained with 0.4% trypan blue and counted on a hemocytometer after treatment with compounds at 48 and 72 h time point. Results were represented as number of viable cells/ml in bar diagram (FIGS. 1 B, D, F, and H) (n=3).

[1] = Cytotoxicity in HEK293T cells; assay type: cell-based; conditions: human, HEK293T cells (human embryonic kidney); read-out: Cytotoxicity IC 50 in μM (Cell lines) HEK293T
Experimental: as §1
The human T cell leukemia cell line Molt4, Human acute lymphoblastic leukemia (ALL) cell line Nalm6, Human acute myelocytic leukemia (AML) cell line Reh, chronic myelogenous leukemia (CML) cell line K562, Human breast adenocarcinoma cell lines like MCF7 and human kidney cell line HEK 293T (Human embryonic kidney cell line) were selected for the purpose of preliminary anticancer screening of newly synthesized compounds (ASR1 to ASR15). […]
as §2, with “Results were represented as number of viable cells/ml in bar diagram (FIGS. 1 B, D, F, and H) (n=3).” left out

[2] = molecular target: T1, recombinant human DNA topoisomerase IIα (Homo sapiens, UniProt P11388); experiment: Topoisomerase IIα DNA relaxation assay; assay type: biochemical; conditions: 0, 10, 25, 50 and 100 μM, supercoiled pBS-SK+ plasmid, 37° C. 30 min, dose dependent
T1 construct: purchased TopoGEN; Inc
T1 sequence (P11388 whole entry): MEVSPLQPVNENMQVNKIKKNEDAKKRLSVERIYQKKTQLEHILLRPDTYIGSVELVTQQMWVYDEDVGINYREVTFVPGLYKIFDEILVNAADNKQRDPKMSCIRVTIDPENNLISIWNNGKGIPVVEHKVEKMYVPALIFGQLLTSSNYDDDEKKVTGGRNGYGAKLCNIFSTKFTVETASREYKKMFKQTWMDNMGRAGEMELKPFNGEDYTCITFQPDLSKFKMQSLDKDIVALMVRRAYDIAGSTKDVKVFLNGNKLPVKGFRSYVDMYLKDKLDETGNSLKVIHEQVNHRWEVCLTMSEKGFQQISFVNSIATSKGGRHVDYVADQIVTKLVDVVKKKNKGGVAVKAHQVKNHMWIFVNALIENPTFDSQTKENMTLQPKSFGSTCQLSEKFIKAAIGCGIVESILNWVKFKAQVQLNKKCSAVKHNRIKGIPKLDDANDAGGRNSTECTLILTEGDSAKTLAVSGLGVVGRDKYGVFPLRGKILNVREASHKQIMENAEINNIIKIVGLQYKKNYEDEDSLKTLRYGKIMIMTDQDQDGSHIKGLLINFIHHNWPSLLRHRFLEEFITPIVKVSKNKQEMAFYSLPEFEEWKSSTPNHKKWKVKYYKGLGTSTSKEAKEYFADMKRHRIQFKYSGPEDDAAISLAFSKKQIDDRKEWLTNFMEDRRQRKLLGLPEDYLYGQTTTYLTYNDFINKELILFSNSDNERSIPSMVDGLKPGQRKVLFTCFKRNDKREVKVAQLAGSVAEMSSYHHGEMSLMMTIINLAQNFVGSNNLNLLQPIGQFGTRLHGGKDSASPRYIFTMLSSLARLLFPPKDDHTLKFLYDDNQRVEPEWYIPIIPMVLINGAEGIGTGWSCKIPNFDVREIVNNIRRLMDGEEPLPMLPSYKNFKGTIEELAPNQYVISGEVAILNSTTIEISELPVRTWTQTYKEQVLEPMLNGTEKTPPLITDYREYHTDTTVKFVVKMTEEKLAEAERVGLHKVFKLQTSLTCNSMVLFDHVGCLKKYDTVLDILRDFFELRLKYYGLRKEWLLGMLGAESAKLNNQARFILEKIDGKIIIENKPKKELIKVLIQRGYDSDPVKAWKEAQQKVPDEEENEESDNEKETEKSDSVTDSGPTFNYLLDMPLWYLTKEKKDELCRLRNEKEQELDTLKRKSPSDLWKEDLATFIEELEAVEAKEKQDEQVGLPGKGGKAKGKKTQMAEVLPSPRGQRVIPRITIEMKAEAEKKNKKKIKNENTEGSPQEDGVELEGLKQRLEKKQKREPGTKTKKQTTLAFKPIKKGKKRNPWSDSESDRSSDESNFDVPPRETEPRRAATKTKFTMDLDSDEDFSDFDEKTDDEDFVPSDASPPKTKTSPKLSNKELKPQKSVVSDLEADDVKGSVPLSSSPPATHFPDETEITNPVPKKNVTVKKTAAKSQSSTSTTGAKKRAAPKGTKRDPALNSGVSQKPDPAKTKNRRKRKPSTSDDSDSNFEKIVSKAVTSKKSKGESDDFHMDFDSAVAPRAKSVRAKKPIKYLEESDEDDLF
Experimental: The topoisomerase IIα assay was performed, in a reaction mixture containing supercoiled plasmid DNA (pBS-SK+) was isolated using Gen Elute plasmid miniprep kit (Sigma Aldrich), according to manual instructions. ˜200 ng plasmid and two units of recombinant human DNA topoisomerase IIα (TopoGEN. Inc) along with the different concentrations of ASR6 (0, 10, 25, 50 and 100 μM) was added at RT for 5 min; equal amount of DMSO was used as vehicle control. Reaction was carried out at 37° C. for 30 min in a relaxation buffer 1× topo II buffer (50 mM Tris-HCl (pH 8.0), 10 mM NaCl, 10 mM MgCl2, 5 mM ATP, 0.5 mM dithiothreitol and 30 μg BSA/ml) and reactions were terminated by adding 5× stop buffer containing 5% sarkosyl, 0.0025% bromophenol blue, 25% glycerol. The DNA samples were electrophoresed on 1% agarose gel at 45 volts for 4 h with 0.5×TBE (Tris-borate-EDTA). The gels were stained for 30 min in milli Q water containing ethidium bromide (0.5 mg/ml) followed by distaining for 30 min in milli Q water and images were taken. […] VP16 (Topo II inhibitor) were used as positive control (FIG. 6).

Molt4 cells = experiment: Annexin V-FITC/PI staining for apoptosis; assay type: cell-based, Human; conditions: 0.25 & 0.5 μM, 48 h
Experimental: To identify induction of apoptosis after treatment withASR6 in Molt4 cells, annexin V-FITC and propidium iodide staining was carried out. Briefly, Molt4 cells (0.5×10^5 cells per ml) were seeded in 24 well plate and treated with ASR6 (0.25 & 0.5 μM; 48 h). Cells were washed with 1× phosphate buffered saline and suspended in cell binding buffer, stained with Annexin V-FITC (0.2 mg/ml) and propidium iodide (0.05 mg/ml)(Santacruz, USA), and incubated in dark for 20 min at room temperature. Finally cells were subjected to FACS analysis (FACSVerse™BD Bioscience, USA) (10,000 cells were acquired). The results were analyzed in WinMDI 2.9 Software, bar diagram was plotted using at least two independent experiments with error bar.

## CCOC(=O)c1[nH]c(-c2ccc(Cl)cc2)cc1-c1cccnc1 [ASR6, Ethyl 5-(4-chlorophenyl)-3-(pyridin-3-yl)-1H-pyrrole-2-carboxylate]
K562
  IC50: 0.512 µM
[1]
  IC50: 0.866 µM
[2]
  Inhibition of topoisomerase IIα activity (DNA relaxation): can inhibit topoisomerase Ha enzymatic activity
Molt4 cells
  Apoptotic cell population (annexin V-FITC/PI): significant increase in apoptotic cell population
